According to PubChem BioAssay AID1963960 (Molecular Pharmacology Branch, DTP, NCI, 2024):

System: MDA-MB-468 spheroids with HUVEC/MSC, viability
Test: Anticancer human tumor MDA-MB-468 cell line growth inhibition [PI3K];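 further: spheroids exposed to agents for seven days before readout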;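 on viability, T/C: 100% = DMSO vehicle control viability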
Details: for IC50: curve of first compound; for viability, T/C: stronger effect = lower value
Procedure, shortened: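 High-throughput combination screen: PI3K inhibitors crossed with targeted small molecules on complex spheroids of tumor cells, HUVEC and MSCs at 37 degrees C, 5% CO2. Top concentration was at or near clinical Cmax (otherwise 10 microM), with half-log decrements.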

[1] = second compound 0.00316 µM, first compound 0.0316 µM
[2] = second compound 0.00316 µM, first compound 0.1 µM
[3] = second compound 0.00316 µM, first compound 0.316 µM
[4] = second compound 0.00316 µM, first compound 1 µM
[5] = second compound 0.00316 µM, first compound 3.16 µM
[6] = second compound 0.00316 µM, first compound 10 µM
[7] = second compound 0.01 µM, first compound 0.0316 µM
[8] = second compound 0.01 µM, first compound 0.1 µM
[9] = second compound 0.01 µM, first compound 0.316 µM
[10] = second compound 0.01 µM, first compound 1 µM
[11] = second compound 0.01 µM, first compound 3.16 µM
[12] = second compound 0.01 µM, first compound 10 µM
[13] = second compound 0.0316 µM, first compound 0.0316 µM
[14] = second compound 0.0316 µM, first compound 0.1 µM
[15] = second compound 0.0316 µM, first compound 0.316 µM
[16] = second compound 0.0316 µM, first compound 1 µM
[17] = second compound 0.0316 µM, first compound 3.16 µM
[18] = second compound 0.0316 µM, first compound 10 µM
[19] = second compound 0.1 µM, first compound 0.0316 µM
[20] = second compound 0.1 µM, first compound 0.1 µM
[21] = second compound 0.1 µM, first compound 0.316 µM
[22] = second compound 0.1 µM, first compound 1 µM
[23] = second compound 0.1 µM, first compound 3.16 µM
[24] = second compound 0.1 µM, first compound 10 µM
[25] = second compound 0.316 µM, first compound 0.0316 µM
[26] = second compound 0.316 µM, first compound 0.1 µM
[27] = second compound 0.316 µM, first compound 0.316 µM
[28] = second compound 0.316 µM, first compound 1 µM
[29] = second compound 0.316 µM, first compound 3.16 µM
[30] = second compound 0.316 µM, first compound 10 µM
[31] = second compound 1 µM, first compound 0.0316 µM
[32] = second compound 1 µM, first compound 0.1 µM
[33] = second compound 1 µM, first compound 0.316 µM
[34] = second compound 1 µM, first compound 1 µM
[35] = second compound 1 µM, first compound 3.16 µM
[36] = second compound 1 µM, first compound 10 µM

SMILES: C#Cc1c(F)ccc2cc(O)cc(-c3ncc4c(N5CC6CCC(C5)N6)nc(OCC56CCCN5CC(F)C6)nc4c3F)c12 (stereo not drawn) + COc1c(OCCCN2CCOCC2)ccc2c3n(c(=NC(=O)c4cnc(N)nc4)nc12)CCN3
- IC50 (second compound 0.00316 µM): > 10000 nM
- IC50 (second compound 0.01 µM): > 10000 nM
- IC50 (second compound 0.0316 µM): 7830 nM
- IC50 (second compound 0.1 µM): 3670 nM
- IC50 (second compound 0.316 µM): < 31.6 nM
- IC50 (second compound 1 µM): < 31.6 nM
- viability, T/C [1]: 89.4%
- viability, T/C [2]: 82.8%
- viability, T/C [3]: 96.7%
- viability, T/C [4]: 96.8%
- viability, T/C [5]: 84.5%
- viability, T/C [6]: 56.9%
- viability, T/C [7]: 72.7%
- viability, T/C [8]: 91.3%
- viability, T/C [9]: 87%
- viability, T/C [10]: 87%
- viability, T/C [11]: 77.7%
- viability, T/C [12]: 61%
- viability, T/C [13]: 76.5%
- viability, T/C [14]: 68.8%
- viability, T/C [15]: 74.2%
- viability, T/C [16]: 83.9%
- viability, T/C [17]: 72.4%
- viability, T/C [18]: 43.7%
- viability, T/C [19]: 53.9%
- viability, T/C [20]: 52%
- viability, T/C [21]: 61.3%
- viability, T/C [22]: 61.8%
- viability, T/C [23]: 52.8%
- viability, T/C [24]: 24.6%
- viability, T/C [25]: 25.1%
- viability, T/C [26]: 23%
- viability, T/C [27]: 25.9%
- viability, T/C [28]: 27.2%
- viability, T/C [29]: 20.1%
- viability, T/C [30]: 6.75%
- viability, T/C [31]: 2.58%
- viability, T/C [32]: 2.36%
- viability, T/C [33]: 2.21%
- viability, T/C [34]: 2.61%
- viability, T/C [35]: 1.99%
- viability, T/C [36]: 0.74%

SMILES: CC(Cn1ccc(-c2ccc(C#N)c(Cl)c2)n1)NC(=O)c1cc(C(C)O)[nH]n1 (stereo not drawn) + COc1c(OCCCN2CCOCC2)ccc2c3n(c(=NC(=O)c4cnc(N)nc4)nc12)CCN3
- IC50 (second compound 0.00316 µM): > 10000 nM
- IC50 (second compound 0.01 µM): > 10000 nM
- IC50 (second compound 0.0316 µM): > 10000 nM
- IC50 (second compound 0.1 µM): > 10000 nM
- IC50 (second compound 0.316 µM): < 31.6 nM
- IC50 (second compound 1 µM): < 31.6 nM
- viability, T/C [1]: 88.8%
- viability, T/C [2]: 90.3%
- viability, T/C [3]: 94.3%
- viability, T/C [4]: 92.3%
- viability, T/C [5]: 90.5%
- viability, T/C [6]: 75.3%
- viability, T/C [7]: 92.2%
- viability, T/C [8]: 91.3%
- viability, T/C [9]: 83.4%
- viability, T/C [10]: 95.3%
- viability, T/C [11]: 85.3%
- viability, T/C [12]: 63.7%
- viability, T/C [13]: 83.6%
- viability, T/C [14]: 75.7%
- viability, T/C [15]: 87.1%
- viability, T/C [16]: 80.5%
- viability, T/C [17]: 80.9%
- viability, T/C [18]: 62.8%
- viability, T/C [19]: 55.8%
- viability, T/C [20]: 57%
- viability, T/C [21]: 60.9%
- viability, T/C [22]: 59.3%
- viability, T/C [23]: 56%
- viability, T/C [24]: 62.3%
- viability, T/C [25]: 26.9%
- viability, T/C [26]: 24.4%
- viability, T/C [27]: 27.3%
- viability, T/C [28]: 26.1%
- viability, T/C [29]: 26.7%
- viability, T/C [30]: 27.2%
- viability, T/C [31]: 2.86%
- viability, T/C [32]: 2.48%
- viability, T/C [33]: 2.64%
- viability, T/C [34]: 3.21%
- viability, T/C [35]: 3.72%
- viability, T/C [36]: 2.3%

SMILES: CC1(C)CCC(Nc2ncc(C(F)(F)F)c(-c3c[nH]c4c(P(C)(C)=O)c(C#N)ccc34)n2)CN1 (stereo not drawn) + COc1c(OCCCN2CCOCC2)ccc2c3n(c(=NC(=O)c4cnc(N)nc4)nc12)CCN3
- IC50 (second compound 0.00316 µM): < 31.6 nM
- IC50 (second compound 0.01 µM): < 31.6 nM
- IC50 (second compound 0.0316 µM): < 31.6 nM
- IC50 (second compound 0.1 µM): < 31.6 nM
- IC50 (second compound 0.316 µM): < 31.6 nM
- IC50 (second compound 1 µM): < 31.6 nM
- viability, T/C [1]: 9.69%
- viability, T/C [2]: 8.09%
- viability, T/C [3]: 7.16%
- viability, T/C [4]: 7.44%
- viability, T/C [5]: 6.56%
- viability, T/C [6]: 1.22%
- viability, T/C [7]: 8.56%
- viability, T/C [8]: 7.53%
- viability, T/C [9]: 6.69%
- viability, T/C [10]: 6.66%
- viability, T/C [11]: 6.59%
- viability, T/C [12]: 1.41%
- viability, T/C [13]: 8.31%
- viability, T/C [14]: 8.47%
- viability, T/C [15]: 7.44%
- viability, T/C [16]: 6.08%
- viability, T/C [17]: 6.49%
- viability, T/C [18]: 1.91%
- viability, T/C [19]: 9.69%
- viability, T/C [20]: 8.3%
- viability, T/C [21]: 7.97%
- viability, T/C [22]: 6.87%
- viability, T/C [23]: 6%
- viability, T/C [24]: 2.2%
- viability, T/C [25]: 8.16%
- viability, T/C [26]: 6.87%
- viability, T/C [27]: 6.83%
- viability, T/C [28]: 5.84%
- viability, T/C [29]: 4.35%
- viability, T/C [30]: 1.03%
- viability, T/C [31]: 4.03%
- viability, T/C [32]: 3.59%
- viability, T/C [33]: 3.45%
- viability, T/C [34]: 4.91%
- viability, T/C [35]: 3.08%
- viability, T/C [36]: 0.82%

SMILES: Cn1cnc2c(F)c(Nc3ccc(Br)cc3Cl)c(C(=O)NOCCO)cc21 + Cc1nc(NC(=O)N2CCCC2C(N)=O)sc1-c1ccnc(C(C)(C)C(F)(F)F)c1
- IC50 (second compound 0.0316 µM): > 3000 nM
- IC50 (second compound 0.1 µM): 1810 nM
- IC50 (second compound 0.316 µM): 949 nM
- IC50 (second compound 1 µM): 385 nM
- IC50 (second compound 3.16 µM): 18.1 nM
- IC50 (second compound 10 µM): < 9.49 nM
- viability, T/C (second compound 0.0316 µM, first compound 0.00949 µM): 75.3%
- viability, T/C (second compound 0.0316 µM, first compound 0.03 µM): 80%
- viability, T/C (second compound 0.0316 µM, first compound 0.0949 µM): 76.9%
- viability, T/C (second compound 0.0316 µM, first compound 0.3 µM): 94.1%
- viability, T/C (second compound 0.0316 µM, first compound 0.949 µM): 69.4%
- viability, T/C (second compound 0.0316 µM, first compound 3 µM): 50.8%
- viability, T/C (second compound 0.1 µM, first compound 0.00949 µM): 82.7%
- viability, T/C (second compound 0.1 µM, first compound 0.03 µM): 77.6%
- viability, T/C (second compound 0.1 µM, first compound 0.0949 µM): 77.8%
- viability, T/C (second compound 0.1 µM, first compound 0.3 µM): 86.5%
- viability, T/C (second compound 0.1 µM, first compound 0.949 µM): 60.7%
- viability, T/C (second compound 0.1 µM, first compound 3 µM): 41.5%
- viability, T/C (second compound 0.316 µM, first compound 0.00949 µM): 98.5%
- viability, T/C (second compound 0.316 µM, first compound 0.03 µM): 82.2%
- viability, T/C (second compound 0.316 µM, first compound 0.0949 µM): 69.7%
- viability, T/C (second compound 0.316 µM, first compound 0.3 µM): 74.5%
- viability, T/C (second compound 0.316 µM, first compound 0.949 µM): 46.9%
- viability, T/C (second compound 0.316 µM, first compound 3 µM): 34.2%
- viability, T/C (second compound 1 µM, first compound 0.00949 µM): 66.9%
- viability, T/C (second compound 1 µM, first compound 0.03 µM): 69.4%
- viability, T/C (second compound 1 µM, first compound 0.0949 µM): 57.2%
- viability, T/C (second compound 1 µM, first compound 0.3 µM): 54.2%
- viability, T/C (second compound 1 µM, first compound 0.949 µM): 40.1%
- viability, T/C (second compound 1 µM, first compound 3 µM): 25.6%
- viability, T/C (second compound 3.16 µM, first compound 0.00949 µM): 53.9%
- viability, T/C (second compound 3.16 µM, first compound 0.03 µM): 47.8%
- viability, T/C (second compound 3.16 µM, first compound 0.0949 µM): 37.5%
- viability, T/C (second compound 3.16 µM, first compound 0.3 µM): 33.8%
- viability, T/C (second compound 3.16 µM, first compound 0.949 µM): 21.2%
- viability, T/C (second compound 3.16 µM, first compound 3 µM): 12.4%
- viability, T/C (second compound 10 µM, first compound 0.00949 µM): 28.8%
- viability, T/C (second compound 10 µM, first compound 0.03 µM): 14.7%
- viability, T/C (second compound 10 µM, first compound 0.0949 µM): 15.8%
- viability, T/C (second compound 10 µM, first compound 0.3 µM): 12.1%
- viability, T/C (second compound 10 µM, first compound 0.949 µM): 7.32%
- viability, T/C (second compound 10 µM, first compound 3 µM): 4.97%
